Measured values published in US20240327364A1, “THERAPEUTIC TARGETING OF GPR68 TO INDUCE FERROPTOSIS” (University Of Maryland, Baltimore, priority 2023, published 2024).

Legend:
SRC = target: T1, SRC (Homo sapiens, UniProt P12931); test: KinomeScan; type: binding; conditions: read-out: % Control
T1 construct: purchased DiscoveRx (Fremont, CA)

WEE2 = target: T2, WEE2 (Homo sapiens, UniProt P0C1S8); test: KinomeScan; type: binding; conditions: read-out: % Control
T2 construct: purchased DiscoveRx
T2 sequence (P0C1S8 whole entry): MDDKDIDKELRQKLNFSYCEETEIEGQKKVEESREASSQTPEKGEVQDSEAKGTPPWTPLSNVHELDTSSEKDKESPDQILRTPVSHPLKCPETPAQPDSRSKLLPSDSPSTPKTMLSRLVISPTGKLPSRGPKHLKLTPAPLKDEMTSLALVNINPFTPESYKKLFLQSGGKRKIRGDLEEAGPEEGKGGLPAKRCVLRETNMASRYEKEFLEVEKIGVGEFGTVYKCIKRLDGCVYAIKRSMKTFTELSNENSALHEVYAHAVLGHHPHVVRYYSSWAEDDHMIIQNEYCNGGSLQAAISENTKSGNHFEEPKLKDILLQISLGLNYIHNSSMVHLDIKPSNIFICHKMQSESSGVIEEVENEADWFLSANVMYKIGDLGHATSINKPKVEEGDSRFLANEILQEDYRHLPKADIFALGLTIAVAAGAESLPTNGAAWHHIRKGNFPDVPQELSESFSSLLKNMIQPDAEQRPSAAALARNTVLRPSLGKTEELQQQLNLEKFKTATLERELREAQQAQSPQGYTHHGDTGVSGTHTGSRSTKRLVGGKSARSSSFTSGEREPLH

TGFBR1 = target: T3, TGFBR1 (Homo sapiens, UniProt P36897); test: KinomeScan; type: binding; conditions: read-out: % Control
T3 construct: purchased DiscoveRx (Fremont, CA)
T3 sequence (P36897 34-503): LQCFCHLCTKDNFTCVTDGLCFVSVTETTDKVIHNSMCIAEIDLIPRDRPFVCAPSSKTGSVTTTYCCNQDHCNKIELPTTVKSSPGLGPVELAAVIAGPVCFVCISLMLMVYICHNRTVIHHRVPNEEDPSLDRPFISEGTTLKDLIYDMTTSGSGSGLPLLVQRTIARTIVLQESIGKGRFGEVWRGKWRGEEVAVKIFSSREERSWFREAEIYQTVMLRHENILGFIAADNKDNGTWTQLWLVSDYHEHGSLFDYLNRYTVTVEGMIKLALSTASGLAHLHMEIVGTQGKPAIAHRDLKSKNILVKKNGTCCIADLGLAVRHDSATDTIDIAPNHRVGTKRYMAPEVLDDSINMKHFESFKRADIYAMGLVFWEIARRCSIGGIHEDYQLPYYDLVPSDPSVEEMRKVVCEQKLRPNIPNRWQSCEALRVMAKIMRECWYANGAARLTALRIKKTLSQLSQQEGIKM

AURKB = target: T4, AURKB (Homo sapiens, UniProt Q96GD4); test: KinomeScan; type: binding; conditions: read-out: % Control
T4 construct: purchased DiscoveRx (Fremont, CA)
T4 sequence (Q96GD4 whole entry): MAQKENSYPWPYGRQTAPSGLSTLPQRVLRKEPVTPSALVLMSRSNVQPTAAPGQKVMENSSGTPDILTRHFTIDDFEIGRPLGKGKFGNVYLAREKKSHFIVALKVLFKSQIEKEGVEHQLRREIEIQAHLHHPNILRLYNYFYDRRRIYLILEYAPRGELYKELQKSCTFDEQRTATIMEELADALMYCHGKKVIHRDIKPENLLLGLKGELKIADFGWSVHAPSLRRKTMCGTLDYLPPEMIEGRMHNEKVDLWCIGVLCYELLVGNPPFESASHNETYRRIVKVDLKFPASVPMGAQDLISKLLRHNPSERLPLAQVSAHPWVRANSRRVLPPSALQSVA

EPHA2 = target: T5, EPHA2 (Homo sapiens, UniProt P29317); test: KinomeScan; type: binding; conditions: read-out: % Control
T5 construct: purchased DiscoveRx (Fremont, CA)
T5 sequence (P29317 24-976): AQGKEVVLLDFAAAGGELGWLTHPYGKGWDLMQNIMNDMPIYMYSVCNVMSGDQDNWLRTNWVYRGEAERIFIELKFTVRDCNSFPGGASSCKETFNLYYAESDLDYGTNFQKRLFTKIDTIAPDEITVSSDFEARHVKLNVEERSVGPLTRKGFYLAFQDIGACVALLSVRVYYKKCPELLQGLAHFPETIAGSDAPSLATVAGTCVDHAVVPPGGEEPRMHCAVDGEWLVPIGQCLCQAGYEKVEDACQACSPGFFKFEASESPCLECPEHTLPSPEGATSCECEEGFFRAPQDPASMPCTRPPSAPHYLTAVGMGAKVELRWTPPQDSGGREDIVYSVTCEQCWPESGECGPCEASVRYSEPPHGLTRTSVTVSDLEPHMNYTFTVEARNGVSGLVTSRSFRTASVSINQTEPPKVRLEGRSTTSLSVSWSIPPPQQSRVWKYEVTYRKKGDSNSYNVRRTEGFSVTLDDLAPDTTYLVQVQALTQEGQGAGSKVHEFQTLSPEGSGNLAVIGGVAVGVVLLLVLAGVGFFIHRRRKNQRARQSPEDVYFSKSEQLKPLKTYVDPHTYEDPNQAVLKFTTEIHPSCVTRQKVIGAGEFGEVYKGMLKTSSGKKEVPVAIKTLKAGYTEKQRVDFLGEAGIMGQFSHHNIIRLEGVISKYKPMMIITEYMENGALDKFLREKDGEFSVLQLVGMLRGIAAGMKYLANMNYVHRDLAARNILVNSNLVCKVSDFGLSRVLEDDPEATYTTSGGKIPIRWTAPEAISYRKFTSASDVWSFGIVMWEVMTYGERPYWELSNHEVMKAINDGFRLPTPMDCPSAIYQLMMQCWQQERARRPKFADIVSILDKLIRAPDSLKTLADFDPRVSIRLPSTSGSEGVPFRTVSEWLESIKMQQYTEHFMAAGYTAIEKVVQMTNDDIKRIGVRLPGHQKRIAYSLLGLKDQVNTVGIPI

CAMK1D = target: T6, CAMK1D (Homo sapiens, UniProt Q8IU85); test: KinomeScan; type: binding; conditions: read-out: % Control
T6 construct: purchased DiscoveRx (KinomeScan service)
T6 sequence (Q8IU85 whole entry): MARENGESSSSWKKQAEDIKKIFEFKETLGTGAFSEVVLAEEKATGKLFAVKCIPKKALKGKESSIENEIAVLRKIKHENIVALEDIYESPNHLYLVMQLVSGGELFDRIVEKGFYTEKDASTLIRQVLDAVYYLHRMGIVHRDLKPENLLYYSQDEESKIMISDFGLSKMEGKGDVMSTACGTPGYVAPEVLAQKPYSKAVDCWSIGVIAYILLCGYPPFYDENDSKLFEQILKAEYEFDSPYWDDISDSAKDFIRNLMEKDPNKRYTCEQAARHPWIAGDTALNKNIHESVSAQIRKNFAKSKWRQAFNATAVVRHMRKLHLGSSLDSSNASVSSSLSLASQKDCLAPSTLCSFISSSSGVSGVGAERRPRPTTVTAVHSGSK

CCR6 = target: T7, CCR6 (Homo sapiens, UniProt P51684); test: GPCR Profiler; type: cell-based
T7 construct: host or cells: Chem-1 cells with Gα15
T7 sequence (P51684 whole entry): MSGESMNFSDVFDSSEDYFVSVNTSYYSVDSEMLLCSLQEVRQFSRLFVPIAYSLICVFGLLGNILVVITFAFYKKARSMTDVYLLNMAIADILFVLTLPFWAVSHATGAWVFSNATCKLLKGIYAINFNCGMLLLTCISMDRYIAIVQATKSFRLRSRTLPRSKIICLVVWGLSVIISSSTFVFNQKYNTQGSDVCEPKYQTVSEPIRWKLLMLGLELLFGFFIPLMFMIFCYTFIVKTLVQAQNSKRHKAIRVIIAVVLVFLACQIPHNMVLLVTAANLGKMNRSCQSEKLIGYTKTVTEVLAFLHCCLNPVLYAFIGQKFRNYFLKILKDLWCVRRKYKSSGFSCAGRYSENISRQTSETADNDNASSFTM

NK2 = target: T8, NK2 (Homo sapiens, UniProt P21452); test: GPCR Profiler; type: cell-based
T8 construct: host or cells: Chem-1 cells expressing Gα15
T8 sequence (P21452 whole entry): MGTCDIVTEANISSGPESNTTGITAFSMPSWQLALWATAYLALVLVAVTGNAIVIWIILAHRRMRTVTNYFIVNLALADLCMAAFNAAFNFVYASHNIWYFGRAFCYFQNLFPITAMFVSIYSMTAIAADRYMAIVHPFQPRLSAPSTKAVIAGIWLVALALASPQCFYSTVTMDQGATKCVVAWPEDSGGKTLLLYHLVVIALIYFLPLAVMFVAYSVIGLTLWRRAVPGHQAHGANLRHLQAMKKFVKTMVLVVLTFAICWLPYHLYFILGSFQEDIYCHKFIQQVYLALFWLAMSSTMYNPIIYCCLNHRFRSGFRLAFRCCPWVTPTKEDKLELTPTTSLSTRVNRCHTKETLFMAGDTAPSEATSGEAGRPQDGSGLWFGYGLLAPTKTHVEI

U138 [1] = test: Liperfluo lipid peroxidation; type: cell-based, human
Experimental: (§1) Cells were plated on a 100 mm cell culture dish (CELLTREAT Scientific Products) in 10 mls of DMEM with high glucose, GlutaMAX, HEPES, Penicillin-Streptomycin (ThermoFisher™) and 10% FBS. Cells were incubated overnight at 37° C. in 5% CO2. Media were then replaced with […] fresh media with DMSO, OGM2, or Erastin (APExBIO Technology™) and the cells incubated for 3 days. On the third day, 3 mL fresh media with 2.5 μM Liperfluo™ (Dojindo Molecular Technologies™, Inc.) resuspended in DMSO was added and cells were incubated at 37° C. in 5% CO2 for 1 hour. Cells were subsequently trypsinized for 5 minutes, pelleted by centrifugation, and resuspended in cell sorting media (1% BSA and 1 mM EDTA in PBS pH 7.4). Ten thousand events were recorded on a BD LSR II and the data processed using the FlowJo™ software.
(§2) Where appropriate, ANOVA, or student's T-test were conducted in PRISM. Chi squared T(X) was used for Liperfluo analysis. A value T(X)>4 implies that the two distributions are different with a p<0.01 (99% confidence). For drug interaction and therapeutic interaction, the coefficient of drug interaction (CDI) was calculated as follows: CDI=AB/(A×B). According to the impact of each group, AB is the value of combined treatment and A or B is the value of the single agent group to control group.

U87 [2] = test: Liperfluo lipid peroxidation; type: cell-based, human; conditions: OGM2 and 2Gy ionizing radiation
Experimental: as §1, §2

U138 [3] = test: 2D cell growth/viability; type: cell-based, human
Experimental: (§3) GBM neurospheres and low passage PDX models were plated in 96-well plates at 10,000 cells per well in 50 μL of neural stem cell media. The next day, the cells were treated with OGM2 compounds at the indicated concentrations, in triplicates, by adding an equal volume of medium containing 2× the final concentration of compound. Following 72 hours incubation under standard cell culture conditions, relative cell number was assessed using Cell Titer-Glo Luminescent Cell Viability Assay (Promega™) following the manufacturer's instructions. Luminescence was determined using a Cytation 5 reader and Gen5 software package (BioTek™). For U87 and U138 cell lines, one thousand cells were plated per well in a standard 96-well plate and allowed to attach for 24 hours before exposure to concentrations of vehicle, OGM2, or TMZ. Cells were treated for 72 hours and then stained with DAPI. A 10× magnification lens on a LionheartFX (BioTek™) was used to image the wells, and images were stitched together with Gen5 software (BioTek™). Automated nuclei counting was also done using the Gen5 software. Results reported as percent response relative to DMSO control. IC50 (the concentration causing 50% inhibition) was determined by GraphPad Prism™ version 6.07.
(§4) Temozolomide is the standard of care for glioblastoma but only works on 30% of patients. […]

U87 [4] = test: 2D cell growth/viability; type: cell-based, human; conditions: 72 hours
Experimental: as §3, §4

[5] = tested on: U87 glioblastoma spheroids; test: Matrigel matrix invasion of spheroids; type: cell-based
Excerpt: U87 glioblastoma spheroids were formed in low attachment round bottom plates for 3 days. Spheroids were then covered in Matrigel™, which was allowed to polymerize before treatment with acidified media with or without OGM2. Acidification increased the degree of matrix invasion which is attenuated by OGM2.

T1 sequence (P12931 whole entry): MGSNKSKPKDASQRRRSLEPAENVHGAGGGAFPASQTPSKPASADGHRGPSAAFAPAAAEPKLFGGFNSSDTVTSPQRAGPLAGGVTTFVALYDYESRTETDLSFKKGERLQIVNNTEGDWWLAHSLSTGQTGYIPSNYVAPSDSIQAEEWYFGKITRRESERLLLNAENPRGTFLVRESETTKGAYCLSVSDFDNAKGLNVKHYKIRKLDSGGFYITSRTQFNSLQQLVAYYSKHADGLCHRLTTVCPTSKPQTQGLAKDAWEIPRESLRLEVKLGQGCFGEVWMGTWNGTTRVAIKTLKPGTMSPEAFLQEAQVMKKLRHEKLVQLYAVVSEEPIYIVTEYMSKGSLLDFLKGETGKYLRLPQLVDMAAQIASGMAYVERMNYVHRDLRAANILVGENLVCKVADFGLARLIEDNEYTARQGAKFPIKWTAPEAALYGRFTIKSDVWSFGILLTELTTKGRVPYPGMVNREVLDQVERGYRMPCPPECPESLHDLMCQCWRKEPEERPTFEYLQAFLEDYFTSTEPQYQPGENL

Compound	remaining binding at 10 µM (SRC) [%]	remaining binding at 10 µM (WEE2) [%]	remaining binding at 10 µM (TGFBR1) [%]	remaining binding at 10 µM (AURKB) [%]	remaining binding at 10 µM (EPHA2) [%]	remaining binding at 10 µM (CAMK1D) [%]	Antagonism (CCR6; 10 uM)	Agonism (CCR6; 12.5 uM)	Antagonism (NK2; 10 uM)	Agonism (NK2; 12.5 uM)	Chi-squared T(X), lipid peroxidation (U138 [1]; 2 μM)	Chi-squared T(X), lipid peroxidation (U138 [1]; 10 μM)	CDI, lipid peroxidation (U138 [1]; OGM2 and 2Gy ionizing radiation)	CDI, lipid peroxidation (U87 [2])	cell growth in 2D culture (U138 [3])	cell growth, comparison with Temozolomide (U87 [4])	acidification-increased matrix invasion [5]
CCc1ccc2c(c1)C1(NN=C(c3cccc4ccccc34)S1)C(=O)N2 (centres unmarked) [OGM1, 5-ethyl-5′-naphthalen-1-ylspiro[1H-indole-3,2′-3H-1,3,4-thiadiazole]-2-one]	95	100	100	86	100	68	5.1	1.5	1	0							
CCc1ccc2c(c1)C1(NN=C(c3ccccc3)S1)C(=O)N2 (centres unmarked) [OGM2]											273	592	< 0.006	< 0.06	caused dose-dependent inhibition of U138 cell growth	more potent inhibitor of U87 cell growth in 2D cell assay than Temozolomide	attenuated
